Measurements as given in US20260242353A1, “HETEROARYL DERIVATIVES AS DDRs INHIBITORS” (CHIESI FARMACEUTICI S.P.A., priority 2022, published 2026).

Key:
DDR2 = target: T1, DDR2 (Homo sapiens, UniProt Q16832); assay: LanthaScreen Europium Kinase Binding assay, DDR2; settings: 5 nM DDR2, 10 nM Kinase Tracer 178, 1 h at rt; Ki from IC50 by Cheng-Prusoff; read-out: Ki DDR2
T1 construct: purchased Life Technologies
T1 sequence (Q16832 22-855): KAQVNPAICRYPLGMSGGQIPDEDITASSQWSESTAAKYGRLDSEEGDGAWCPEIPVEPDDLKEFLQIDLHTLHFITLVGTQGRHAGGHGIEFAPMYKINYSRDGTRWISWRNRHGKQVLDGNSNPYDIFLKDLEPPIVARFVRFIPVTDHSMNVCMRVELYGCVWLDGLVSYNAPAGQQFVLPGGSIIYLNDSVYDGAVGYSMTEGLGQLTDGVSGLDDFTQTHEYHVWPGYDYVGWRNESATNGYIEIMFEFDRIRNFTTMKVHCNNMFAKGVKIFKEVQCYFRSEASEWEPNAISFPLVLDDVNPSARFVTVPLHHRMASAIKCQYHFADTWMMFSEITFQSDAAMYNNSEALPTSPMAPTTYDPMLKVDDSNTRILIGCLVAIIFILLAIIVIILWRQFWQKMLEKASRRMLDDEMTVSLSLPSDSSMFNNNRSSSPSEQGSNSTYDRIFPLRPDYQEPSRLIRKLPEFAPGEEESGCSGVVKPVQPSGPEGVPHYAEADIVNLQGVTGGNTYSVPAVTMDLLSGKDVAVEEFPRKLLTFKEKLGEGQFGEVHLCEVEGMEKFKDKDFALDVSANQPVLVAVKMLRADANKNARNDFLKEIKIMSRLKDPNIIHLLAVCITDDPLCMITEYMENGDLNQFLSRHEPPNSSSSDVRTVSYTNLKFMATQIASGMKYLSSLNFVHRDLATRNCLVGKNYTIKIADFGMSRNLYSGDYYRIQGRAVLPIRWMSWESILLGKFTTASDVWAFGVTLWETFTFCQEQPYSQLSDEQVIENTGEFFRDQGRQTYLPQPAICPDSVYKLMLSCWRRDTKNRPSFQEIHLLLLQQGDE
Experimental: (§1) DDR1 and DDR2 binding assays were performed using Life Technologies LanthaScreen™ Europium Kinase Binding assay. The compounds were incubated with 5 nM DDR1 (Carna Biosciences) or 5 nM DDR2 (Life Technologies) for 1 h at rt in white 384-well OptiPlate (PerkinElmer), containing 20 nM or 10 nM Kinase Tracer 178 respectively and 2 nM Europium labelled anti-GST antibody (Life Technologies) in assay buffer (50 mM HEPES pH 7.5, 10 mM MgCI2, 1 mM EGTA and 0.01% BRIJ35). The ratio of fluorescence emission 665 nm/615 nm after excitation at 340 nm was obtained using the Tecan Spark 20M plate reader. IC50 values were determined in GraphPad Prism 7.0 software, using 4 parameter model: log(inhibitor) vs. response. IC50 values were converted in Ki using the Cheng-Prusoff equation (Ki=IC50/(1+[Tracer]/Kd).

DDR1 = target: T2, DDR1 (Homo sapiens, UniProt Q08345); assay: LanthaScreen Europium Kinase Binding assay, DDR1; settings: 5 nM DDR1, 20 nM Kinase Tracer 178, 1 h at rt; Ki from IC50 by Cheng-Prusoff; read-out: Ki DDR1
T2 construct: purchased Carna Biosciences
Experimental: as §1

T2 sequence (Q08345 19-913): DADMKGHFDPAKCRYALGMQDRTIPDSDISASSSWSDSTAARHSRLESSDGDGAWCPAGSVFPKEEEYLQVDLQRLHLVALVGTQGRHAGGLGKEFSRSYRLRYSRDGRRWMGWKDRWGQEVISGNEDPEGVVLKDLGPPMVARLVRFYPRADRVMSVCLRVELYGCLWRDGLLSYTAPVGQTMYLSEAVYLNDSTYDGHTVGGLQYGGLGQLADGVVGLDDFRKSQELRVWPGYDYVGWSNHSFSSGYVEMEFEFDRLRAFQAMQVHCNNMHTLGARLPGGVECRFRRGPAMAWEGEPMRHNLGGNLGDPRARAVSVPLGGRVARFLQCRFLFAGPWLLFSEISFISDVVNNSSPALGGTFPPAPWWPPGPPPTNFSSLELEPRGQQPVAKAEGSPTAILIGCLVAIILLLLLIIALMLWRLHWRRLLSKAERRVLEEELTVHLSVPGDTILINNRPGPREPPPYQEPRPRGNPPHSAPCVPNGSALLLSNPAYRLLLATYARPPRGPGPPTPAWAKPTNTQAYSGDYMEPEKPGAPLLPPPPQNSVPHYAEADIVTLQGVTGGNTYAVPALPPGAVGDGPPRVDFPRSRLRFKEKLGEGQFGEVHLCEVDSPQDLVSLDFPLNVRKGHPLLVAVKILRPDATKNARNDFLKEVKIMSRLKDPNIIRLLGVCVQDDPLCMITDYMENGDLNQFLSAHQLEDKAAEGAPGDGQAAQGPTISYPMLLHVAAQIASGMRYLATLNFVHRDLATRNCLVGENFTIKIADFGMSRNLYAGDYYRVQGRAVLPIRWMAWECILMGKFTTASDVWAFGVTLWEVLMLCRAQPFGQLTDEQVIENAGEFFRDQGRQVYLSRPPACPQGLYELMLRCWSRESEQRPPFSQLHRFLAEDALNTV

Compound	Ki (DDR2) [nM]	Ki (DDR1) [nM]
Cc1ccc(C(=O)Nc2cncc(C(F)(F)F)c2)cc1[C@@H]1CCN(c2cnc3cnccn23)C1 [Example 37, (S)-3-(1-(imidazo[1,2-a]pyrazin-3-yl)pyrrolidin-3-yl)-4-methyl-N-(5-(trifluoromethyl)pyridin-3-yl)benzamide]	< 5	< 5
Cc1ccc(C(=O)Nc2cncc(C(F)(F)F)c2)cc1[C@@H]1CCN(c2cncc(C(=O)NC3COC3)c2)C1 [Example 38, (S)-5-(3-(2-methyl-5-((5-(trifluoromethyl)pyridin-3-yl)carbamoyl)phenyl)pyrrolidin-1-yl)-N-(oxetan-3-yl)nicotinamide]	< 5	< 5
Cc1ccc(C(=O)Nc2cncc(C(F)(F)F)c2)cc1[C@@H]1CCN(c2cncc(C(=O)N[C@H]3C[C@@H](O)C3)c2)C1 [Example 39, N-((1s,3R)-3-hydroxycyclobutyl)-5-((S)-3-(2-methyl-5-((5-(trifluoromethyl)pyridin-3-yl)carbamoyl)phenyl)pyrrolidin-1-yl)nicotinamide]	< 5	< 5
Cc1ccc(C(=O)Nc2cncc(C(F)(F)F)c2)cc1[C@@H]1CCN(c2cncc(C(=O)N3CCN(C)CC3)c2)C1 [Example 40, (S)-4-methyl-3-(1-(5-(4-methylpiperazine-1-carbonyl)pyridin-3-yl)pyrrolidin-3-yl)-N-(5-(trifluoromethyl)pyridin-3-yl)benzamide]	5 to 25	< 5
Cc1ccc(C(=O)Nc2cncc(C(F)(F)F)c2)cc1[C@@H]1CCN(c2cnccc2C(=O)NC2COC2)C1 [Example 41, (S)-3-(3-(2-methyl-5-((5-(trifluoromethyl)pyridin-3-yl)carbamoyl)phenyl)pyrrolidin-1-yl)-N-(oxetan-3-yl)isonicotinamide]	25 to 100	< 5
Cc1ccc(C(=O)Nc2cncc(C(F)(F)F)c2)cc1[C@@H]1CCN(c2cccnc2N)C1 [Example 42, (S)-3-(1-(2-aminopyridin-3-yl)pyrrolidin-3-yl)-4-methyl-N-(5-(trifluoromethyl)pyridin-3-yl)benzamide]	< 5	< 5
Cc1ccc(C(=O)Nc2cncc(C(F)(F)F)c2)cc1[C@@H]1CCN(c2cnc3[nH]ncc3c2)C1 [Example 43, 4-methyl-3-[(3S)-1-(1H-pyrazolo[3,4-b]pyridin-5-yl)pyrrolidin-3-yl]-N-[5-(trifluoromethyl)-3-pyridyl]benzamide]	< 5	< 5
Cc1ccc(C(=O)Nc2cncc(C(F)(F)F)c2)cc1N1CC(Oc2ccc(N)nc2)C1 [Example 44, 3-(3-((6-aminopyridin-3-yl)oxy)azetidin-1-yl)-4-methyl-N-(5-(trifluoromethyl)pyridin-3-yl)benzamide]	25 to 100	5 to 25
CC(=O)Nc1ccc(OC2CN(c3cc(C(=O)Nc4cncc(C(F)(F)F)c4)ccc3C)C2)cn1 [Example 45, 3-(3-((6-acetamidopyridin-3-yl)oxy)azetidin-1-yl)-4-methyl-N-(5-(trifluoromethyl)pyridin-3-yl)benzamide]	5 to 25	< 5
COCC(=O)Nc1ccc(OC2CN(c3cc(C(=O)Nc4cncc(C(F)(F)F)c4)ccc3C)C2)cn1 [Example 46, 3-(3-((6-(2-methoxyacetamido)pyridin-3-yl)oxy)azetidin-1-yl)-4-methyl-N-(5-(trifluoromethyl)pyridin-3-yl)benzamide]	25 to 100	5 to 25
Cc1ccc(C(=O)Nc2cncc(C(F)(F)F)c2)cc1N1CC(Oc2cncc(N)c2)C1 [Example 47, 3-(3-((5-aminopyridin-3-yl)oxy)azetidin-1-yl)-4-methyl-N-(5-(trifluoromethyl)pyridin-3-yl)benzamide]	5 to 25	5 to 25
Cc1ccc(C(=O)Nc2cc(OC(F)F)ccn2)cc1[C@@H]1CCN(c2cncc(C(N)=O)n2)C1 [Example 51, (S)-6-(3-(5-((4-(difluoromethoxy)pyridin-2-yl)carbamoyl)-2-methylphenyl)pyrrolidin-1-yl)pyrazine-2-carboxamide]	< 5	< 5
Cc1ccc(C(=O)Nc2cc(C(C)(C)C)n(C)n2)cc1[C@@H]1CCN(c2ccnc(C(N)=O)c2)C1 [Example 52, (S)-4-(3-(5-((5-(tert-butyl)-1-methyl-1H-pyrazol-3-yl)carbamoyl)-2-methylphenyl)pyrrolidin-1-yl)picolinamide]	5 to 25	< 5
Cc1ccc(C(=O)Nc2cc(CN(C)C)nc(C(F)(F)F)c2)cc1[C@@H]1CCN(c2ccnc(C(N)=O)c2)C1 [Example 53, (S)-4-(3-(5-((2-((dimethylamino)methyl)-6-(trifluoromethyl)pyridin-4-yl)carbamoyl)-2-methylphenyl)pyrrolidin-1-yl)picolinamide]	5 to 25	< 5
Cc1ccc(C(=O)Nc2cncc(C(F)(F)F)c2)cc1[C@@H]1CCN(c2cc(C(N)=O)ncn2)C1 [Example 54, (S)-6-(3-(2-methyl-5-((5-(trifluoromethyl)pyridin-3-yl)carbamoyl)phenyl)pyrrolidin-1-yl)pyrimidine-4-carboxamide]	< 5	< 5
Cc1ccc(C(=O)Nc2cc(C(C)(C)C(F)(F)F)on2)cc1[C@@H]1CCN(c2cnccc2C#N)C1 [Example 55, (S)-3-(1-(4-cyanopyridin-3-yl)pyrrolidin-3-yl)-4-methyl-N-(5-(1,1,1-trifluoro-2-methylpropan-2-yl)isoxazol-3-yl)benzamide]	< 5	< 5
CCc1cc(NC(=O)c2ccc(C)c([C@@H]3CCN(c4cnccc4C#N)C3)c2)no1 [Example 56, (S)-3-(1-(4-cyanopyridin-3-yl)pyrrolidin-3-yl)-N-(5-ethylisoxazol-3-yl)-4-methylbenzamide]	< 5	< 5
Cc1ccc(C(=O)Nc2cc(OC(F)(F)F)ccn2)cc1[C@@H]1CCN(c2ccnc(C(N)=O)c2)C1 [Example 57, (S)-4-(3-(2-methyl-5-((4-(trifluoromethoxy)pyridin-2-yl)carbamoyl)phenyl)pyrrolidin-1-yl)picolinamide]	5 to 25	< 5
Cc1ccc(C(=O)Nc2cc(C(C)(C)C(F)(F)F)on2)cc1[C@@H]1CCN(c2cnccn2)C1 [Example 58, (S)-4-methyl-3-(1-(pyrazin-2-yl)pyrrolidin-3-yl)-N-(5-(1,1,1-trifluoro-2-methylpropan-2-yl)isoxazol-3-yl)benzamide]	< 5	< 5
Cc1ccc(C(=O)Nc2cc(C3CC3)nn2C)cc1[C@@H]1CCN(c2cncc(-c3cnn(C)c3)c2)C1 [Example 59, (S)-N-(3-cyclopropyl-1-methyl-1H-pyrazol-5-yl)-4-methyl-3-(1-(5-(1-methyl-1H-pyrazol-4-yl)pyridin-3-yl)pyrrolidin-3-yl)benzamide]	5 to 25	< 5
Cc1ccc(C(=O)Nc2cc(C(C)(C)C(F)(F)F)on2)cc1[C@H]1CCN(c2cncc(-c3cnn(C)c3)c2)C1 [Example 60, (R)-4-methyl-3-(1-(5-(1-methyl-1H-pyrazol-4-yl)pyridin-3-yl)pyrrolidin-3-yl)-N-(5-(1,1,1-trifluoro-2-methylpropan-2-yl)isoxazol-3-yl)benzamide]	< 5	< 5
Cc1ccc(C(=O)Nc2cncc(C(F)(F)F)c2)cc1[C@@H]1CCN(c2ncnc3cc(C(=O)N4CCOCC4)sc23)C1 [Example 61, (S)-4-methyl-3-(1-(6-(morpholine-4-carbonyl)thieno[3,2-d]pyrimidin-4-yl)pyrrolidin-3-yl)-N-(5-(trifluoromethyl)pyridin-3-yl)benzamide]	5 to 25	< 5
Cc1ccc(C(=O)Nc2cncc(C(F)(F)F)c2)cc1[C@@H]1CCN(c2ccnc(C(N)=O)c2)C1 [Example 63, (S)-4-(3-(2-methyl-5-((5-(trifluoromethyl)pyridin-3-yl)carbamoyl)phenyl)pyrrolidin-1-yl)picolinamide]	< 5	< 5
COc1ccc(C(=O)Nc2cncc(C(F)(F)F)c2)cc1C1CCN(c2ccnc(C(N)=O)c2)C1 (stereo not drawn) [Example 64, 4-(3-(2-methoxy-5-((5-(trifluoromethyl)pyridin-3-yl)carbamoyl)phenyl)pyrrolidin-1-yl)picolinamide]	5 to 25	< 5
